In the supplement of paper PMC10307832:

What was measured:
Assay in all cases: relative viability (nuclei count vs DMSO), 5 days (fraction); higher = more cells survive
LU99A = test system: LU99A
Method in brief: (§1)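 Medians of duplicate plates are given as relative viability. That measure is the nuclei count in treated wells divided by the count in vehicle wells. Counts were taken on 4× images of lung cancer cell lines in 1536-well plates, 5 days after pin-tool dosing the day after seeding with one drug alone or a fixed anchor-drug dose plus five library-drug doses (not always all listed) in √10 steps.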

NCI-H1437 = test system: NCI-H1437
Method in brief: as §1

NCI-H1666 = test system: NCI-H1666
Method in brief: as §1

NCI-H1975 = test system: NCI-H1975
Method in brief: as §1

NCI-H2085 = test system: NCI-H2085
Method in brief: as §1

NCI-H2087 = test system: NCI-H2087
Method in brief: as §1

NCI-H2170 = test system: NCI-H2170
Method in brief: as §1

NCI-H647 = test system: NCI-H647
Method in brief: as §1

NCI-H650 = test system: NCI-H650
Method in brief: as §1

PC-3 [JPC-3] = test system: PC-3 [JPC-3]
Method in brief: as §1

SW 1573 = test system: SW 1573
Method in brief: as §1

For `Nc1ccn([C@@H]2O[C@H](CO)[C@@H](O)[C@@H]2O)c(=O)n1` [Cytarabine] + CS(=O)(=O)N1CCN(Cc2cc3nc(-c4cccc5[nH]ncc45)nc(N4CCOCC4)c3s2)CC1 [Pictilisib] (partner 1 µM), the relative viability (LU99A; first compound 0.05 µM) was 0.282, the relative viability (LU99A; first compound 0.1581 µM) was 0.308 and the relative viability (LU99A; first compound 0.5 µM) was 0.299. It also gave a relative viability (NCI-H1437; first compound 0.005 µM) of 0.381, a relative viability (NCI-H1437; first compound 0.01581 µM) of 0.245 and a relative viability (NCI-H1437; first compound 0.05 µM) of 0.252. It also gave a relative viability (NCI-H1437; first compound 0.1581 µM) of 0.112, a relative viability (NCI-H1437; first compound 0.5 µM) of 0.11 and a relative viability (NCI-H1666; first compound 0.005 µM) of 0.498. The relative viability (NCI-H1666; first compound 0.01581 µM) was 0.345, the relative viability (NCI-H1666; first compound 0.05 µM) was 0.381 and the relative viability (NCI-H1666; first compound 0.1581 µM) was 0.229. The relative viability (NCI-H1666; first compound 0.5 µM) was 0.205, the relative viability (NCI-H1975; first compound 0.005 µM) was 0.271 and the relative viability (NCI-H1975; first compound 0.01581 µM) was 0.281. The relative viability (NCI-H1975; first compound 0.05 µM) was 0.311, the relative viability (NCI-H1975; first compound 0.1581 µM) was 0.289 and the relative viability (NCI-H1975; first compound 0.5 µM) was 0.195. For the same compound, the relative viability (NCI-H2085; first compound 0.005 µM) was 0.422, the relative viability (NCI-H2085; first compound 0.01581 µM) was 0.433 and the relative viability (NCI-H2085; first compound 0.05 µM) was 0.401. It also gave a relative viability (NCI-H2085; first compound 0.1581 µM) of 0.367, a relative viability (NCI-H2085; first compound 0.5 µM) of 0.281 and a relative viability (NCI-H2087; first compound 0.005 µM) of 0.804. For the same compound, the relative viability (NCI-H2087; first compound 0.01581 µM) was 0.751, the relative viability (NCI-H2087; first compound 0.05 µM) was 0.805 and the relative viability (NCI-H2087; first compound 0.1581 µM) was 0.461. For the same compound, the relative viability (NCI-H2087; first compound 0.5 µM) was 0.355, the relative viability (NCI-H2170; first compound 0.01581 µM) was 0.257 and the relative viability (NCI-H2170; first compound 0.05 µM) was 0.235. It also gave a relative viability (NCI-H2170; first compound 0.1581 µM) of 0.191, a relative viability (NCI-H2170; first compound 0.5 µM) of 0.192 and a relative viability (NCI-H647; first compound 0.005 µM) of 0.39. It also gave a relative viability (NCI-H647; first compound 0.01581 µM) of 0.212, a relative viability (NCI-H647; first compound 0.05 µM) of 0.159 and a relative viability (NCI-H647; first compound 0.1581 µM) of 0.0808. It also gave a relative viability (NCI-H647; first compound 0.5 µM) of 0.0843, a relative viability (NCI-H650; first compound 0.005 µM) of 0.831 and a relative viability (NCI-H650; first compound 0.01581 µM) of 0.688. The relative viability (NCI-H650; first compound 0.05 µM) was 0.419, the relative viability (NCI-H650; first compound 0.1581 µM) was 0.224 and the relative viability (NCI-H650; first compound 0.5 µM) was 0.214. For the same compound, the relative viability (PC-3 [JPC-3]; first compound 0.005 µM) was 0.695, the relative viability (PC-3 [JPC-3]; first compound 0.01581 µM) was 0.673 and the relative viability (PC-3 [JPC-3]; first compound 0.05 µM) was 0.647. It also gave a relative viability (PC-3 [JPC-3]; first compound 0.1581 µM) of 0.448, a relative viability (PC-3 [JPC-3]; first compound 0.5 µM) of 0.479 and a relative viability (SW 1573; first compound 0.005 µM) of 0.362. The relative viability (SW 1573; first compound 0.01581 µM) was 0.378, the relative viability (SW 1573; first compound 0.05 µM) was 0.317 and the relative viability (SW 1573; first compound 0.1581 µM) was 0.134. For the same compound, the relative viability (SW 1573; first compound 0.5 µM) was 0.106.
